Results published in patent US9278940B2, “Cyclic amines as bromodomain inhibitors” (Zenith Epigenetics Corp., priority 2012, dated 2016).
Where a name gives a salt, the structure may show the parent alone.

Legend:
[1] = system: hMCP-1 mRNA; experiment: Inhibition of hMCP-1 mRNA transcription in human PBMCs; assay type: cell-based; parameters: key: Active: Compounds with an IC50 value less than 30 μM are deemed to be active.; Not Active: Compounds with an IC50 value less than 30 μM are deemed to be active; conditions: Human Peripheral Blood Mononuclear Cells, 3 h
Experimental: In this example, hMCP-1 mRNA in human peripheral blood mononuclear cells was quantitated to measure the transcriptional inhibition of hMCP-1 when treated with a compound of the present disclosure.
Human Peripheral Blood Mononuclear Cells were plated (1.0×10^5 cells per well) in a 96-well plate in 45 μL RPMI-1640 containing 10% FBS and penicillin/streptomycin. The cells were treated with the test compound (45 μL at 2× concentration), and then the cells were incubated at 37° C. for 3 h before the cells were harvested. At time of harvest, cells were transferred to V-bottom plates and centrifuged at 800 rpm for 5 minutes. Spent media was removed and cell lysis solution (70 μL) was added the cells in each well and incubated for 5-10 min at room temperature, to allow for complete cell lysis and detachment. mRNA was then prepared using the “mRNA Catcher PLUS plate” (Invitrogen), according to the protocol supplied. After the last wash, as much wash buffer as possible was aspirated without allowing the wells to dry. […]
The eluted mRNA isolated was then used in a one-step quantitative real-time PCR reaction, using components of the Ultra Sense Kit together with Applied Biosystems primer-probe mixes. Real-time PCR data was analyzed, normalizing the Ct values for hMCP-1 to an internal control, prior to determining the fold induction of each unknown sample, relative to the control.

[2] = system: IL-6 and IL-17 cytokines; experiment: In vivo efficacy in mouse endotoxemia model; conditions: C57/Bl6 mice, oral 75 mg/kg, inhibition of IL-6 and IL-17 post 4 hour LPS challenge 0.5 mg/kg intraperitoneally
Experimental: Sub lethal doses of Endotoxin (E. Coli bacterial lipopolysaccharide) were administered to animals to produce a generalized inflammatory response which was monitored by increases in secreted cytokines. Compounds were administered to C57/Bl6 mice orally at 75 mg/kg dose to evaluate inhibition in IL-6 and IL-17 cytokines post 4 hour challenge with Lipopolysaccharide (LPS) at 0.5 mg/kg dose intraperitoneally.

[3] = system: c-myc; experiment: Inhibition of c-myc expression (mRNA, real-time PCR) in MV4-11 cells; assay type: cell-based; parameters: key: Active: Compounds with an IC50 value less than 30 μM were deemed to be active.; Not Active: Compounds with an IC50 value less than 30 μM were deemed to be active; conditions: Human AML MV4-11 cells, 3 hours
Method in brief: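 MV4-11 cells (2.5×10^4) exposed to compound or 0.1% DMSO for 3 h at 37° C, then lysed for mRNA isolation. c-myc and cyclophilin cDNAs co-amplified by duplex RT real-time PCR. IC50 from dose-response curve.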

[4] = system: hApoA-1 mRNA; experiment: Up-regulation of hApoA-1 mRNA transcription in Huh7 cells; assay type: cell-based, human; parameters: key: Active: Compounds with an EC170 value less than 30 μM are deemed to be active.; Not Active: Compounds with an EC170 value less than 30 μM are deemed to be active; conditions: 48 hrs treatment, ApoA-I mRNA
Method in brief: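 Huh7 cells plated 24 h before compound, then treated 48 h; mRNA isolated from lysates and ApoA-I quantified by one-step real-time PCR. Fold induction derived from Ct values relative to the matching DMSO control; EC170 reported as activity measure.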

[5] = system: Human AML MV-4-11 cells; experiment: Inhibition of cell proliferation in MV4-11 cells; assay type: cell-based; parameters: key: Active: Compounds with an IC50 value less than 30 μM are deemed to be active.; Not Active: Compounds with an IC50 value less than 30 μM are deemed to be active; conditions: 72 hours
Method in brief: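 Exponentially growing MV-4-11 cells were treated immediately with two-fold compound dilutions from 30 µM to 0.2 µM in triplicate for 72 h at 37 °C. Viability was read by MTS (CellTiter Aqueous One) absorbance at 490 nm after 3-4 h; % proliferation vs DMSO gave IC50.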

[6] = In vivo efficacy in rat collagen induced arthritis; conditions: female Lewis rats, collagen Day 1 and 7, dosed Day 11 to Day 17
Experimental: Rat collagen-induced arthritis is an experimental model of polyarthritis that has been widely used for preclinical testing of numerous anti-arthritic agents. Following administration of collagen, this model establishes a measurable polyarticular inflammation, marked cartilage destruction in association with pannus formation and mild to moderate bone resorption and periosteal bone proliferation. In this model, collagen was administered to female Lewis strain of rats on Day 1 and 7 of study and dosed with compounds from Day 11 to Day 17. Test compounds were evaluated to assess the potential to inhibit the inflammation (including paw swelling), cartilage destruction and bone resorption in arthritic rats, using a model in which the treatment is administered after the disease has been established.

- MCP-1 activity (IC50 < 30 μM) [1]: Active
- c-myc activity (IC50 < 30 μM) [3]: Active
- cell proliferation activity (IC50 < 30 μM) [5]: Active
SMILES: COc1cc(OC)c2c(=O)[nH]c(-c3cccc(N4CCN(C(C)C)CC4)n3)nc2c1 [Example 17, 2-(6-(4-Isopropylpiperazin-1-yl)pyridin-2-yl)-5,7-dimethoxyquinazolin-4(3H)-one Hydrochloride]
- In vivo activity [2]: Active
- ApoA-1 activity (EC170 < 30 μM) [4]: Active
- In vivo activity [6]: Active
